Experimental data from patent US8410159B2, “Imidazole compounds having pharmaceutical activity towards the sigma receptor” (Laboratories del Dr. Esteve, S.A., priority 2006, dated 2013).

How the values were obtained:
σ1-receptor = target: T1, σ1-receptor (Cavia porcellus, UniProt Q60492); assay: Sigma-1 receptor binding assay, [3H](+)-pentazocine, brain membranes; settings: guinea pig brain membranes; for inhibition at 0.1 µM: compound 10^−7 M; for inhibition at 0.1 µM / inhibition at 0.01 µM: [3H](+)-pentazocine 0.5 nM; for inhibition at 0.01 µM: compound 10^−8 M; for Ki: σ1, [3H](+)-pentazocine
T1 construct: guinea pig brains were homogenized; from tissue; host or cells: guinea pig brain membranes
T1 sequence (Q60492 whole entry): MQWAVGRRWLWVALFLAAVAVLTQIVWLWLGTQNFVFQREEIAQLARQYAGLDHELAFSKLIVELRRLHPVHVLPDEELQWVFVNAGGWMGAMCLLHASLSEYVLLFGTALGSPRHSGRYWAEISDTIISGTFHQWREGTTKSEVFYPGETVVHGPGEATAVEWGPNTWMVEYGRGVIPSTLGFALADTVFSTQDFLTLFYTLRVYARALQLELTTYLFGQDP
Procedure: Brain membrane preparation and binding assays for the σ1-receptor were performed as described (DeHaven-Hudkins et al., 1992) with some modifications. In brief, guinea pig brains were homogenized in 10 vols. (w/v) of Tris-HCl 50 mM 0.32 M sucrose, pH 7.4, with a Kinematica Polytron PT 3000 at 15000 r.p.m. for 30 s. The homogenate was centrifuged at 1000 g for 10 min at 4° C. and the supernatants collected and centrifuged again at 48000 g for 15 min at 4° C. The pellet was resuspended in 10 volumes of Tris-HCl buffer (50 mM, pH 7.4), incubated at 37° C. for 30 min, and centrifuged at 48000 g for 20 min at 4° C. Following this, the pellet was resuspended in fresh Tris-HCl buffer (50 mM, pH 7.4) and stored on ice until use.
Each assay tube contained 10 μL of [^3H](+)-pentazocine (final concentration of 0.5 nM), 900 μL of the tissue suspension to a final assay volume of 1 mL and a final tissue concentration of approximately 30 mg tissue net weight/mL. Non-specific binding was defined by addition of a final concentration of 1 μM haloperidol. All tubes were incubated at 37° C. for 150 min before termination of the reaction by rapid filtration over Schleicher & Schuell GF 3362 glass fibre filters [previously soaked in a solution of 0.5% polyethylenimine for at least 1 h]. Filters were then washed with four times with 4 mL of cold Tris-HCl buffer (50 mM, pH 7.4). Following addition of scintillation cocktail, the samples were allowed to equilibrate overnight. The amount of bound radioactivity was determined by liquid scintillation spectrometry using a Wallac Winspectral 1414 liquid scintillation counter. Protein concentrations were determined by the method of Lowry et al. (1951).

[1] = tested on: capsaicin-induced allodynia; assay: von Frey filaments in a model of capsaicin-induced allodynia; assay type: in vivo; settings: percent analgesia compared to control, mice, mechanical stimulus (von Frey) after capsaicin
Procedure: In-Vivo-Experiments Using von Frey Filaments in a Model of […]-Induced Allodynia: This model is described in detail in the experimental part of WO 2006/010587 A1, examples 1 and 2, the description being included here by reference. Capsaicin is thereby injected into experimental animals to produce acute pain followed by allodynia. Briefly after habituation mice were first treated with the test-compound (or not in controls). Then capsaicin (1% DMSO) is injected into their paw resulting in developing pain in the effected paw. The effected paw is then treated with a mechanical stimulus and the latency time before the paw is withdrawn is measured.

Compound | melting point [°C] | inhibition at 0.1 µM (σ1-receptor) [%] | inhibition at 0.01 µM (σ1-receptor) [%] | Ki (σ1-receptor) [nM] | Analgesia (16 mg/kg), i.p. % [1] [%]
CN(CCNc1ccn(-c2ccc(Cl)c(Cl)c2)n1)C1CCCCC1.O=C(O)C(=O)O | 114 to 116 | – | – | – | –
CN1CCN(CC(=O)Nc2ccn(-c3ccc(Cl)c(Cl)c3)n2)CC1.O=C(O)C(=O)O | 213 to 217 | – | – | – | –
CN1CCN(CCNc2ccn(-c3ccc(Cl)c(Cl)c3)n2)CC1.O=C(O)C(=O)O | 230 to 232 | – | – | – | –
Clc1ccc(-n2ccc(NCCN3CCCCCC3)n2)cc1Cl.O=C(O)C(=O)O | 157 to 159 | – | – | – | –
CN(CC(=O)Nc1ccn(-c2ccc(Cl)c(Cl)c2)n1)Cc1ccccc1.O=C(O)C(=O)O | 206 to 209 | – | – | – | –
O=C(CN1CCOCC1)Nc1ccn(-c2ccc3ccccc3c2)n1.O=C(O)C(=O)O | 213 to 217 | – | – | – | –
O=C(O)C(=O)O.c1ccc2cc(-n3ccc(NCCN4CCOCC4)n3)ccc2c1 | 148 to 153 | – | – | – | –
Cc1cc(SCCN2CCCC2)nn1-c1ccc(Cl)c(Cl)c1.O=C(O)C(=O)O | 144 to 151 | – | – | – | –
O=C(CN1CCOCC1)Nc1ccn(-c2cccc(Cl)c2)n1.O=C(O)C(=O)O | 219 to 220 | – | – | – | –
Cc1cc(SCCN2CCCCC2)nn1-c1ccc(Cl)c(Cl)c1.O=C(O)C(=O)O | 162 to 164 | – | – | – | –
O=C(CN1CCCC1)Nc1ccn(C2CCCCC2)n1.O=C(O)C(=O)O | 127 to 130 | – | – | – | –
Clc1cccc(-n2ccc(NCCN3CCOCC3)n2)c1.O=C(O)C(=O)O | 144 to 146 | – | – | – | –
O=C(CN1CCCCC1)Nc1ccn(C2CCCCC2)n1.O=C(O)C(=O)O | 177 to 181 | – | – | – | –
CCN(CC)CCNc1ccn(-c2ccc(Cl)c(Cl)c2)n1 [Example 1, 1-(3,4-dichlorophenyl)-N-(2-(diethylamino)ethyl)-1H-pyrazol-3-amine] | – | 66.6 | 1.8 | 46.4 | –
O=C(CN1CCOCC1)Nc1ccn(-c2ccc(Cl)c(Cl)c2)n1 [Example 2, N-(1-(3,4-dichlorophenyl)-1H-pyrazol-3-yl)-2-morpholinoacetamide] | – | 37.8 | 25.9 | – | –
Clc1ccc(-n2ccc(NCCN3CCOCC3)n2)cc1Cl [Example 3, 1-(3,4-dichlorophenyl)-N-(2-morpholinoethyl)-1H-pyrazol-3-amine] | – | 78.9 | 54.3 | – | –
CCN(CC)CC(=O)Nc1ccn(-c2ccc(Cl)c(Cl)c2)n1 [Example 4, N-(1-(3,4-dichlorophenyl)-1H-pyrazol-3-yl)-2-(diethylamino)acetamide] | 69 to 74 | 77.3 | 51.7 | 6.4 | 47
O=C(CN1CCCCC1)Nc1ccn(-c2ccc(Cl)c(Cl)c2)n1 [Example 5, N-[1-(3,4-dichlorophenyl)-1H-pyrazol-3-yl)-2-(piperidin-1-yl)acetamide] | 78 to 82 | 68.2 | 46.1 | – | –
Clc1ccc(-n2ccc(NCCN3CCCCC3)n2)cc1Cl.O=C(O)C(=O)O [Example 6, 1-(3,4-Dichlorophenyl)-N-(2-(piperidin-1-yl)ethyl)-1H-pyrazol-3-amine oxalate] | 168 to 172 | 88.3 | 53.6 | 7.1 | 42
CN(CC(=O)Nc1ccn(-c2ccc(Cl)c(Cl)c2)n1)C1CCCCC1 [Example 11, 2-(cyclohexyl (methyl)amino)-N-(1-(3,4-dichlorophenyl)-1H-pyrazol-3-yl)acetamide] | 88 to 94 | 91.8 | 68.8 | – | –
Clc1ccc(-n2ccc(NCCN3CCN(C4CCCCC4)CC3)n2)cc1Cl [Example 14, N-(2-(4-cyclohexylpiperazin-1-yl)ethyl)-1-(3,4-dichlorophenyl)-1H-pyrazol-3-amine] | 115 to 119 | 100 | 72.1 | – | –
O=C(CN1CCCCCC1)Nc1ccn(-c2ccc(Cl)c(Cl)c2)n1 [Example 28, 2-(azepan-1-yl)-N-(1-(3,4-dichlorophenyl)-1H-pyrazol-3-yl)acetamide] | 99 to 102 | – | – | – | –
Cc1cc(SCCN2CCOCC2)nn1-c1ccc(Cl)c(Cl)c1.O=C(O)C(=O)O [Example 68, 4-(2-(1-(3,4-dichlorophenyl)-5-methyl-1H-pyrazol-3-ylthio)ethyl) morpholine oxalate] | – | 93.5 | 91.2 | 23 ± 0.6 | 21
CCN(CC)CCSc1cc(C)n(-c2ccc(Cl)c(Cl)c2)n1.O=C(O)C(=O)O [Example 70, 2-(1-(3,4-dichlorophe-nyl)-5-methyl-1H-pyrazol-3-ylthio)-N,N-diethylethanamine oxalate] | 184 to 188 | 93.1 | 34.6 | – | –
